In US20260174748A1, “AGENT FOR ALLEVIATING CLOZAPINE-INDUCED SIALORRHEA” (National University Corporation Chiba University, priority 2022, published 2026):
Like-named read-outs stand apart in the source and are kept apart here.

Tests used:
Format in all cases: in vivo, rat
CIS model rats [1] = experiment: Experiment 4: acute phase effect of MK-801 and SA4503 on clozapine-induced sialorrhea; details: total of 3 times, 1 hour after final administration
Protocol: (§1) Water and feed were limited from 1 hour before the saliva amount measurement.
(§2) As a method for measuring the amount of saliva, a small piece of cotton ball was placed in the mouth of the restrained rat and swabbed for 10 seconds (the saliva was absorbed into the cotton ball). This was repeated three times, and the mass change of the cotton ball was measured. The mass change was measured as the saliva amount collected over a total of 30 seconds.
The alleviating effect (acute phase effect) on clozapine-induced sialorrhea by a selective NMDA receptor antagonist MK-801 and a selective sigma-1 receptor agonist SA4503 were investigated. Experiment 4 was performed on CIS model rats of groups A to C as follows.
• Group A (control): Intraperitoneal administration of saline (1 mL/kg) for a total of 3 times • Group B: Intraperitoneal administration of MK-801 (0.1 mg/kg) for a total of 3 times • Group C: Intraperitoneal administration of SA4503 (1 mg/kg) for a total of 3 times
Note that the intraperitoneal administration was performed once in the morning and once in the afternoon on day 8 and once in the morning on day 9 for a total of 3 times. The saliva amount was measured 1 hour after the final administration.

CIS model rats [2] = experiment: Experiment 5: MK-801 in combination with NMDA receptor agonists D-serine or Glycine in CIS model rats; details: 3 times; for reduction in saliva amount by MK-801, compared to group B / resulting saliva amount relative to group A (control): 900 mg/kg oral, 1 hour later MK-801 0.1 mg/kg intraperitoneal; for reduction in saliva amount by MK-801, compared to group B: D-serine p<0.05, glycine p<0.01; for resulting saliva amount relative to group A (control): day 9
Protocol: as §1, §2
Experiment 5 was performed on CIS model rats of groups A to D as follows.
• Group A (control): The solvent (5 mL/kg) was orally administered, and then 1 hour later, saline (1 mL/kg) was intraperitoneally administered. This administration was performed for a total of 3 times. • Group B: The solvent (5 mL/kg) was orally administered, and then 1 hour later, MK-801 (0.1 mg/kg) was intraperitoneally administered. This administration was performed for a total of 3 times. • Group C: D-serine (900 mg/kg) was orally administered, and then 1 hour later, MK-801 (0.1 mg/kg) was intraperitoneally administered. This administration was performed for a total of 3 times. • Group D: Glycine (900 mg/kg) was orally administered, and then 1 hour later, MK-801 (0.1 mg/kg) was intraperitoneally administered. This administration was performed for a total of 3 times.
Note that the administration was performed once in the morning and once in the afternoon on day 8 and once in the morning on day 9 for a total of 3 times. The saliva amount was measured 1 hour after the final administration.

male Wister rats = experiment: Creation of CIS model animals: saliva amount after oral clozapine; details: for saliva amount: 7 days
Protocol: CIS model animals were created with reference to previous studies (Ishikawa S, J. Pharmacol. Exp. Ther., 2020, November; 375(2): 376-384).
As experimental animals, 6 to 8-week-old male Wister rats (made by CLEA Japan, Inc.) were used. The animals were freely ingested and fed on water and normal feed except for the period of time from 1 hour before the saliva amount measurement described below to the measurement.
as §1, §2

CIS model rats [3] = details: group C
Protocol: as §1, §2
The dose and period of administration of the NMDA receptor antagonist dextromethorphan (DXM) were investigated using the above-described CIS model animals (CIS model rats). Experiment 1 was performed on CIS model rats of groups A to C as follows.
The saliva amount was measured before drug administration on day 14 (24 hours after drug administration up to day 13).

CIS model rats [4] = details: for change in saliva amount from day 7 to day 9 (1 hour after administration): total of 3 times
Protocol: as §1, §2
The dose of dextromethorphan (DXM) was changed to examine the dose-dependency of clozapine-induced sialorrhea suppression effect.
The following studies were performed on the dose-dependency of the acute phase effect of DXM using the above-described CIS model animals (CIS model rats).
Note that swabs were performed on days 5 and 6 to accustom the model animals with the saliva measurement.
• Group A: Intraperitoneal administration of saline (1 mL/kg) for a total of 3 times • Group B: Intraperitoneal administration of saline (1 mL/kg) for a total of 3 times • Group C: Intraperitoneal administration of DXM (3 mg/kg) for a total of 3 times • Group D: Intraperitoneal administration of DXM (30 mg/kg) for a total of 3 times • Group E: Intraperitoneal administration of DXM (60 mg/kg) for a total of 3 times
The agent of the above dose was administered once in the morning and once in the afternoon on day 8 and once in the morning on day 9 for a total of 3 times. The saliva amount was measured 1 hour after the final administration.

CIS model rats [5] = details: group B, DXM 30 mg/kg/day intraperitoneal on days 8 and 9 after clozapine 100 mg/kg/day days 1-7; p<0.01
Protocol: as §1, §2
In the above Experiment 1, the saliva amount was measured 24 hours after DXM administration. […] The following studies were performed on the acute phase effect of dextromethorphan (DXM) using the above-described CIS model animals (CIS model rats).
Swabs were conducted on a daily basis to accustom the model animals with saliva measurements.
• Group A: Intraperitoneal administration of saline (1 mL/kg) once per day • Group B: Intraperitoneal administration of DXM (30 mg/kg/day) once per day
On Day 9, the saliva amount was measured 1 hour after DXM administration.

Compound: COc1ccc(CCN2CCN(CCCc3ccccc3)CC2)cc1OC [SA4503]
- saliva amount on day 9 compared to group A (control) (CIS model rats [1]; group C, SA4503 1 mg/kg intraperitoneal, p<0.05): significantly reduced

Compound: C[C@]12N[C@H](Cc3ccccc31)c1ccccc12 [MK-801, dizocilpine (MK-801)]
- saliva amount on day 9 compared to group A (control) (CIS model rats [1]; group B, MK-801 0.1 mg/kg intraperitoneal, p<0.01): significantly reduced
- saliva amount on day 9 compared to group A (control) (CIS model rats [2]; group B, solvent oral then MK-801 0.1 mg/kg intraperitoneal, p<0.05): significantly reduced

Compound: NCC(=O)O [glycine, Glycine]
- reduction in saliva amount by MK-801, compared to group B (CIS model rats [2]): significantly antagonized
- resulting saliva amount relative to group A (control) (CIS model rats [2]): same level as that in group A

Compound: CN1CCN(C2=Nc3cc(Cl)ccc3Nc3ccccc32)CC1 [clozapine]
- saliva amount (male Wister rats; 25 mg/kg/day orally once per day): did not increase
- saliva amount (male Wister rats; 50 mg/kg/day orally once per day, from day 3 of administration): increased significantly
- saliva amount (male Wister rats; 100 mg/kg/day orally once per day, from day 3 of administration): increased significantly
- amount of saliva secretion (male Wister rats; single oral dose of 25, 50 or 100 mg/kg/day, measured 4 times per day, every 6 hours from 1 hour after administration): no increase in the amount of saliva secretion was observed

Compound: N[C@H](CO)C(=O)O [D-serine]
- reduction in saliva amount by MK-801, compared to group B (CIS model rats [2]): significantly antagonized
- resulting saliva amount relative to group A (control) (CIS model rats [2]): same level as that in group A

Compound: COc1ccc2c(c1)[C@]13CCCC[C@@H]1[C@H](C2)N(C)CC3 [dextromethorphan]
- change in saliva amount on day 14 based on the saliva amount on day 7 (CIS model rats [3]; DXM 30 mg/kg/day intraperitoneal + clozapine, compared to groups A and B, p<0.01): significantly reduced
- saliva amount on day 14 (CIS model rats [3]; DXM 30 mg/kg/day intraperitoneal on days 8 to 13 in addition to clozapine 100 mg/kg/day, 24 hours after administration): reduction of saliva amount was observed
- change in saliva amount from day 7 to day 9, group E compared to group C (CIS model rats [4]; DXM 60 mg/kg compared to DXM 3 mg/kg, intraperitoneal, 3 times, p<0.01): significantly reduced
- dose-dependency of clozapine-induced sialorrhea suppression effect (CIS model rats [4]; DXM 3, 30, 60 mg/kg intraperitoneal): dose-dependent
- change in saliva amount from day 7 to day 9 (1 hour after administration) (CIS model rats [4]; group D, DXM 30 mg/kg intraperitoneal, p<0.05): significantly reduced
- change in saliva amount from day 7 to day 9 (1 hour after administration) (CIS model rats [4]; group E, DXM 60 mg/kg intraperitoneal, p<0.001): significantly reduced
- saliva amount at 1 hour after administration on day 9 (CIS model rats [5]): significantly reduced
